{"source": "patent US7452865B2", "about": "“Antagonistic analogs of GH RH (2003)” (The Administrare's of the Tulane Educational Fund, priority 2004, dated 2008)", "system": "hGH-RH(1-29)NH2 induced GH release", "assay": "Inhibition of GH release in superfused rat pituitary system", "type": "cell-based", "outline": "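GH output was quantified by double-antibody RIA in superfusates of rat pituitary cells. Peptides were applied for 9 min at various concentrations before a 3-min 1 nM hGH-RH(1-29)NH2 pulse, with further pulses 30–120 min later; net integral responses given as percent of the original response.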", "note": "Square brackets hold non-standard residues; d marks the D form. Peptide text beside a SMILES is read from it. * marks the point of attachment. Phe(4-amidino) = N=C(N)c1ccc(C[C@H](N)C(=O)O)cc1; Phe(4-Cl) = N[C@@H](Cc1ccc(Cl)cc1)C(=O)O; hArg = N=C(N)NCCCC[C@H](N)C(=O)O; Nle = CCCC[C@H](N)C(=O)O; Abu = CC[C@H](N)C(=O)O; PhAc = O=C(Cc1ccccc1)*"}
{"smiles": "CCCC[C@H](NC(=O)[C@@H](NC(=O)[C@H](CC(=O)O)NC(=O)[C@H](CCC(N)=O)NC(=O)[C@H](CC(C)C)NC(=O)[C@H](CC(C)C)NC(=O)[C@H](CCCCN)NC(=O)[C@H](CCCNC(=N)N)NC(=O)[C@H](C)NC(=O)[C@H](CO)NC(=O)[C@H](CC(C)C)NC(=O)[C@H](CCC(N)=O)NC(=O)[C@H](CC)NC(=O)[C@H](CC(C)C)NC(=O)[C@@H](NC(=O)[C@H](CCCCN)NC(=O)[C@H](CCCNC(=N)N)NC(=O)[C@H](Cc1ccc(OC)cc1)NC(=O)[C@H](Cc1ccc(C(=N)N)cc1)NC(=O)[C@H](CC(N)=O)NC(=O)[C@@H](NC(=O)[C@H](Cc1ccc(Cl)cc1)NC(=O)[C@@H](NC(=O)[C@H](C)NC(=O)[C@H](CC(=O)O)NC(=O)[C@@H](CCCNC(=N)N)NC(=O)[C@H](Cc1ccc(O)cc1)NC(=O)Cc1ccccc1)[C@@H](C)CC)[C@@H](C)O)C(C)C)[C@@H](C)CC)C(=O)N[C@H](CCCNC(=N)N)C(=O)N[C@@H](CCCCNC(=N)N)C(N)=O", "note": "[Peptide 67, [PhAc-Tyr^1, D-Arg^2, Phe(pCl)^6, Amp^9, Tyr(Me)^10, Abu^15, Nle^27, D-Arg^28, Har^29]hGH-RH(1-29)NH2] (PhAc-Y[dR]DAI[Phe(4-Cl)]TN[Phe(4-amidino)]Y(Me)RKVL[Abu]QLSARKLLQDI[Nle][dR][hArg]-NH2)", "values": [{"measurement": "GH response (% of control) 0 min", "setting": "antagonist 30 nM, 1 nM hGH-RH(1-29)NH2 at 0 min", "result": "28 % of control"}, {"measurement": "GH response (% of control) 30 min", "setting": "antagonist 30 nM, 1 nM hGH-RH(1-29)NH2 at 30 min", "result": "15 % of control"}, {"measurement": "GH response (% of control) 60 min", "setting": "antagonist 30 nM, 1 nM hGH-RH(1-29)NH2 at 60 min", "result": "18 % of control"}, {"measurement": "GH response (% of control) 90 min", "setting": "antagonist 30 nM, 1 nM hGH-RH(1-29)NH2 at 90 min", "result": "20 % of control"}, {"measurement": "GH response (% of control) 120 min", "setting": "antagonist 30 nM, 1 nM hGH-RH(1-29)NH2 at 120 min", "result": "23 % of control"}, {"measurement": "endocrine antagonistic potency: inhibition of the GH release stimulated by hGH-RH(1-29)NH2 (in words)", "setting": "general statement, in vitro and in vivo", "result": "high endocrine antagonistic potencies"}]}
